Experimental data: patent US11254640B2, “N-substituted indoles and other heterocycles for treating brain disorders” (The Regents of the University of California, priority 2019, dated 2022)
Read-outs that look alike come from different tables or passages of the source.

What was measured:
Assay type in all cases: cell-based
[1] = system: 5HT2A sensor; experiment: 5HT2A sensor assay, antagonist mode (sLight1.3s HEK293T stable line); details: relative to 5-HT at 100 nM; for 5HT2A Antagonist mean @ 100 nM (%): 100 nM compound; for 5HT2A Antagonist mean @ 10 μM (%): 10 μM compound; for 5HT2A Antagonist mean @ 100 μM (%): 100 μM compound
Experimental: In some embodiments, the 5HT2A sensor assay is in an antagonist mode.
(§1) 5HT2A Sensor Assays. HEK293T (ATCC) 5HT2A sensor stable line (sLight1.3s) was generated via lentiviral transduction of HIV-EF1α-sLight1.3 and propagated from a single colony. Lentivirus was produced using 2nd generation lentiviral plasmids pHIV-EF1α-sLight1.3, pHCMV-G, and pCMV-deltaR8.2.
(§2) For the screening of the 41 compounds, sLight1.3s cells were plated in 96-well plates at a density of 40000 24-hours prior to imaging. On the day of imaging, compounds solubilized in DMSO were diluted from the 100 mM stock solution to working concentrations of 1 mM, 100 μM and 1 μM with a DMSO concentration of 1%. Immediately prior to imaging, cells growing in DMEM (Gibco) were washed 2× with HBSS (Gibco) and in agonist mode 180 μL of HBSS or in antagonist mode 160 μL of HBSS was added to each well after the final wash. For agonist mode, images were taken before and after the addition of the 20 μL compound working solution into the wells containing 180 μL HBSS. This produced final compound concentrations of 100 μM, 10 μM and 100 nM with a DMSO concentration of 0.1%. For antagonist mode, images were taken before and after addition of 20 μL of 900 nM 5-HT and again after 20 μL of the compound working solutions to produce final concentrations of 100 nM for 5HT and 100 μM, 10 μM and 100 nM for the compounds with a DMSO concentration of 0.1%. Each compound was tested in triplicates (3 wells) for each concentration (100 μM, 10 μM and 100 nM). Additionally, within each plate, 100 nM 5HT and 0.1% DMSO controls were also imaged.
(§3) Imaging was performed using the Leica DMi8 inverted microscope with a 40× objective using the FITC preset with an excitation of 460 nm and emission of 512-542 nm. For each well, the cellular membrane where the 5HT2A sensor is targeted was autofocused using the adaptive focus controls and 5 images from different regions within the well were taken with each image processed from a 2×2 binning.
(§4) For data processing, the membranes from each image was segmented and analyzed using a custom algorithm written in MATLAB producing a single raw fluorescence intensity value. For each well the 5 raw fluorescence intensity values generated from the 5 images were averaged and the change in fluorescence intensity (dFF) was calculated as: dFF=(Fsat−Fapo)/Fapo
(§5) For both agonist and antagonist modes, the fluorescence intensity values before compound addition in HBSS only were used as the Fapo values while the fluorescence intensity values after compound addition were used as the Fsat values.
(§6) For agonist mode, data are as percent activation relative to 5HT, where 0 is the average of the DMSO wells and 100 is the average of the 100 uM 5HT wells. For antagonist mode, the inactivation score was calculated as: Inactivation score=(dFFF(Compound+5HT)−dFF(5HT))/dFF(5HT)

[2] = system: 5HT2A sensor; experiment: 5HT2A sensor assay, agonist mode (sLight1.3s HEK293T stable line); details: percent relative to 5-HT at 100 uM; for 5HT2A Agonist mean @ 100 nM (%): 100 nM compound; for 5HT2A Agonist mean @ 10 μM (%): 10 μM compound; for 5HT2A Agonist mean @ 100 μM (%): 100 μM compound
Experimental: In some embodiments, hallucinogenic potential of a compound of the present invention is determined in vitro. In some embodiments, hallucinogenic potential of a compound of the present invention is determined using a 5HT2A sensor assay. In some embodiments, the 5HT2A sensor assay is in an agonist mode or an antagonist mode. In some embodiments, the 5HT2A sensor assay is in an agonist mode.
as §1, §2, §3, §4, §5, §6

[3] = biological target: T1, 5HT2A (Homo sapiens, UniProt P28223); experiment: Calcium flux assay (Calcium secondary messenger pathway); details: agonist mode
T1 construct: expressed in transfected cells
Description: Calcium Flux Assay. Calcium Secondary Messenger Pathway. The Calcium No Wash^PLUS assay monitors the activation of a GPCR (e.g., 5HT2A) via Gq secondary messenger signaling in a live cell, non-imaging assay format. Calcium mobilization in PathHunter® cell lines or other cell lines stably expressing Gq-coupled GPCRs (e.g., 5HT2A) is monitored using a calcium-sensitive dye that is loaded into cells. GPCR (e.g., 5HT2A) activation by a compound results in the release of calcium from intracellular stores and an increase in dye fluorescence that is measured in real-time. In some embodiments, the ability of a compound of the present invention to modulate 5-HT2A function is determined using a calcium flux assay. In some embodiments, a compound of the present invention activates a calcium flux assay.
Calcium Secondary Messenger Pathway. Cell lines were expanded from freezer stocks according to standard procedures. Cells were seeded in a total volume of 20 μL into black-walled, clear-bottom, Poly-D-lysine coated 384-well microplates and incubated at 37° C. for the appropriate time prior to testing. Assays were performed in 1× Dye Loading Buffer consisting of 1× Dye, 1× Additive A and 2.5 mM Probenecid in HBSS/20 mM Hepes. Probenicid was prepared fresh. Cells were loaded with dye prior to testing. Media was aspirated from cells and replaced with 20 μL Dye Loading Buffer. Cells were incubated for 30-60 minutes at 37° C.
For agonist determination, cells were incubated with sample to induce response. After dye loading, cells were removed from the incubator and 10 μL HBSS/20 mM Hepes was added. 3× vehicle was included in the buffer when performing agonist dose curves to define the EC80 for subsequent antagonist assays. Cells were incubated for 30 minutes at room temperature in the dark to equilibrate plate temperature. Intermediate dilution of sample stocks was performed to generate 4× sample in assay buffer. Compound agonist activity was measured on a FLIPR Tetra (MDS). Calcium mobilization was monitored for 2 minutes and 10 μL 4× sample in HBSS/20 mM Hepes was added to the cells 5 seconds into the assay.
Compound activity was analyzed using CBIS data analysis suite (ChemInnovation, CA). For agonist mode assays, percentage activity is calculated using the following formula: % Activity=100%×(mean RFU of test sample−mean RFU of vehicle control)/(mean MAX RFU control ligand−mean RFU of vehicle control).

[4] = system: rat cortical neurons; experiment: Neurite outgrowth assay; details: Cortical neurone, 1 hour treatment at DIV 4, analysed DIV 7, fold vs DMSO control
Description: Neurite outgrowth assay. Changes in the pattern of neurite outgrowth have been implicated in neurodegenerative disorders as well as traumatic injuries. The discovery of new compounds that can positively affect neuritogenesis are important for developing new therapeutics for neurological diseases. Measurement of neurite outgrowth of rat cortical neurons using an automated image-based assay was used to determine the neuroplastic effects of the compounds of the present invention. In some embodiments, a compound of the present invention increases the pattern of neurite outgrowth. In some embodiments, a compound of the present invention increases neurite average length compared to a control. In some embodiments, a compound of the present invention increases neurite branch points compared to a control. In some embodiments, a compound of the present invention increases neurite average length and neurite branch points compared to a control.
Neurite Outgrowth Assay. Rat cortical neurons (20,000 cells/well) were freshly isolated from embryonic day 18 rats and cultured in Neurobasal Medium (+B27). The cultured cells were plated in 96 well-plates (avoiding external wells). At DIV 4, the neurons were treated with compound or control (10 μM) for 1 hour followed by complete washout of the compound. At DIV 7, the neurons were analyzed. The experiments were performed in triplicate. Neurite outgrowth was measured analyzing the following parameters: Number of Cell Bodies, total neurite length (pixels), Root Count, Segments, Extremities Count and node points. Changes in the pattern of neurite outgrowth of the neurons were analyzed by immunocytochemistry against β-III-tubulin. Pictures were acquired by the CellInsight CX7 from Thermo Fisher and analyzed using its software. Results generated in the equipment were maximum neurite length, extremity count, root count, dendrite branch points, and total neurite length. The results were compared to DMSO control, representing the fold-change in neuronal outgrowth.

[5] = read-out: Neurite Average Length @ 10 μM
[6] = read-out: Neurite Branch Points: @ 10 μM

T1 sequence (P28223 whole entry): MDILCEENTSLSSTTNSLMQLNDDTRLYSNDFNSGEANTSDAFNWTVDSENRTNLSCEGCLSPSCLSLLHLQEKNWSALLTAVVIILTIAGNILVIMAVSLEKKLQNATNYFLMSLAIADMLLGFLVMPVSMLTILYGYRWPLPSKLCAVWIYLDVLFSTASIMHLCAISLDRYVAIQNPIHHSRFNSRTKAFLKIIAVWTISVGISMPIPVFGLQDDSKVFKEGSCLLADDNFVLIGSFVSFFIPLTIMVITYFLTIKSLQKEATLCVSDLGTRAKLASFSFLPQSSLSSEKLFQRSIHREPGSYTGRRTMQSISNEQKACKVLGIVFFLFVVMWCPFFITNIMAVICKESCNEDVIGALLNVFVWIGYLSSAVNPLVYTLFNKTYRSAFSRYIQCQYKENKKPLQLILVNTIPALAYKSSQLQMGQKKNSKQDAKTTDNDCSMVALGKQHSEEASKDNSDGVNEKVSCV

Structure (SMILES) | 5HT2A Antagonist mean @ 100 nM (%) [1] | 5HT2A Antagonist mean @ 10 μM (%) [1] | 5HT2A Antagonist mean @ 100 μM (%) [1] | 5HT2A Agonist mean @ 100 nM (%) [2] | 5HT2A Agonist mean @ 10 μM (%) [2] | 5HT2A Agonist mean @ 100 μM (%) [2] | EC50 [3] [µM] | fold induction at 10 µM [4, 5] | fold induction at 10 µM [4, 6]
COc1ccc2c(ccn2CCN2CCCC2)c1 [Example 44, 5-methoxy-1-(2-(pyrrolidin-1-yl)ethyl)-1H-indole] | C (inhibits 5HT response by <75%) | A (inhibits 5HT response by >100%) | A (inhibits 5HT response by >100%) | B (does not activate 5HT2A sensor assay in agonist mode) | B (does not activate 5HT2A sensor assay in agonist mode) | B (does not activate 5HT2A sensor assay in agonist mode) | > 10 | 1.5 to 3 | > 3
COc1ccc2c(ccn2CCN2CCCCC2)c1 [Example 45, 5-methoxy-1-(2-(piperidin-1-yl)ethyl)-1H-indole] | A (inhibits 5HT response by >100%) | B (inhibits 5HT response by 75% to 100%) | A (inhibits 5HT response by >100%) | B (does not activate 5HT2A sensor assay in agonist mode) | B (does not activate 5HT2A sensor assay in agonist mode) | B (does not activate 5HT2A sensor assay in agonist mode) | > 10 | 1.5 to 3 | 1.5 to 3
COc1ccc2c(ccn2CCN2CCOCC2)c1 [Example 46, 4-(2-(5-methoxy-1H-indol-1-yl)ethyl)morpholine] | A (inhibits 5HT response by >100%) | A (inhibits 5HT response by >100%) | A (inhibits 5HT response by >100%) | B (does not activate 5HT2A sensor assay in agonist mode) | B (does not activate 5HT2A sensor assay in agonist mode) | B (does not activate 5HT2A sensor assay in agonist mode) | > 10 | 1.5 to 3 | 1.5 to 3
Clc1ccc2c(ccn2CCN2CCCC2)c1 [Example 47, 5-chloro-1-(2-(pyrrolidin-1-yl)ethyl)-1H-indole] | A (inhibits 5HT response by >100%) | A (inhibits 5HT response by >100%) | A (inhibits 5HT response by >100%) | B (does not activate 5HT2A sensor assay in agonist mode) | B (does not activate 5HT2A sensor assay in agonist mode) | B (does not activate 5HT2A sensor assay in agonist mode) | < 10 | 1.5 to 3 | > 3
Clc1ccc2c(ccn2CCN2CCCCC2)c1 [Example 48, 5-chloro-1-(2-(piperidin-1-yl)ethyl)-1H-indole] | A (inhibits 5HT response by >100%) | A (inhibits 5HT response by >100%) | A (inhibits 5HT response by >100%) | B (does not activate 5HT2A sensor assay in agonist mode) | B (does not activate 5HT2A sensor assay in agonist mode) | B (does not activate 5HT2A sensor assay in agonist mode) | > 10 | 1.5 to 3 | 1.5 to 3
Clc1ccc2c(ccn2CCN2CCOCC2)c1 [Example 49, 4-(2-(5-chloro-1H-indol-1-yl)ethyl)morpholine] | A (inhibits 5HT response by >100%) | B (inhibits 5HT response by 75% to 100%) | C (inhibits 5HT response by <75%) | B (does not activate 5HT2A sensor assay in agonist mode) | B (does not activate 5HT2A sensor assay in agonist mode) | A (activates 5HT2A sensor assay in agonist mode) | > 10 | 1.5 to 3 | 1.5 to 3
FC(F)(F)Oc1ccc2c(ccn2CCN2CCCC2)c1 [Example 50, 1-(2-(pyrrolidin-1-yl)ethyl)-5-(trifluoromethoxy)-1H-indole] | A (inhibits 5HT response by >100%) | B (inhibits 5HT response by 75% to 100%) | A (inhibits 5HT response by >100%) | B (does not activate 5HT2A sensor assay in agonist mode) | B (does not activate 5HT2A sensor assay in agonist mode) | A (activates 5HT2A sensor assay in agonist mode) | > 10 | 1.5 to 3 | 1.5 to 3
